Reference: patent US20060154898A1, “Diphosphonate solutions” (priority 2000, published 2006)
Where a name gives a salt, the structure may show the parent alone.

Test: pH of a diphosphonate solution in distilled water
Assay type: physicochemical
Conditions: solution of one percent in distilled water
Source text: Solutions of diphosphonates will generally have a pH above that desired. For example, a solution of one percent pamidronate disodium salt in distilled water has a pH of approximately 8.3. The pH is adjusted with a suitable acid or alkali. Suitable acids include any acid such as hydrochloric or phosphoric acid. Phosphoric acid is preferred. Suitable […] include sodium hydroxide.

- pH of solution: approximately 8.3
SMILES: NCCC(O)(P(=O)(O)O)P(=O)(O)O [pamidronate disodium salt]
